Literature values, collected in patent publication US20110313040A1, “ORGANIC NUTRIENT SALTS, METHODS OF PREPARATION AND USES” (BELLUS HEALTH INC., priority 2008, published 2011).

Conditions: in vivo

For `NCCCS(=O)(=O)[O-].[Na+]` [sodium salt of homotaurine], the “stomach and gastrointestinal tolerance” value is listed as “caused stomach and gastrointestinal intolerance (e.g. nausea, vomiting)”.
